Source: PubChem BioAssay AID179 (DTP/NCI, 2004)
Calls of active or inactive are those of the source.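 The calls were made as follows: active = compounds giving half or more protection of infected cells from virus-caused growth loss, again on retest; inactive = the rest.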 Where a SMILES comes first, the peptide text is derived from it. Bridges are numbered along the chain shown (N, C = ends). The star is where a group is joined. Cbz = O=C(OCc1ccccc1)*

System: CEM cells HIV-1 protection, formazan growth assay
Experiment: NCI AIDS Antiviral Assay
Conditions: for IC50: measured here: growth of uninfected CEM cells
Procedure, shortened: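 Steps: treat uninfected and HIV-1-infected human CEM cells at five drug levels; quantify growth by soluble formazan; retest any compound reaching 50% protection; classify actives from the retest.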

| Compound | EC50 [µM] | IC50 [µM] | outcome |
| --- | --- | --- | --- |
| O=c1c2cc(-c3ccccc3)cnc2sn1-c1ccc([N+](=O)[O-])cc1 | > 200 | 39.8 | – |
| Nc1ncnc2c1ncn2C1CCCCC1O (centres undefined) | > 58.9 | > 58.9 | – |
| CC1=N/C(=C\c2ccc(N)cc2)C(=O)N1Nc1nnc(NN2C(=O)/C(=C/c3ccc(N)cc3)N=C2C)c2ccccc12 | – | – | inactive |
| CC1(C)CNC[C@@](C)(O)C(=O)NC(C)(C)CNC[C@@](C)(O)C(=O)N1 | > 200 | > 200 | – |
| O=c1c(Cl)nsnc1Cl | > 490 | 28.2 | – |
| COC(=O)[C@@H](NC(=O)N(Cc1ccccc1)C[C@H](CC(C)C)NC(=O)[C@@H](NC(=O)OC(C)(C)C)C(C)C)C(C)C | > 200 | > 100 | – |
| COc1cccc(C2SC(N)=Nc3c2c(C)nn3C(=O)Cc2ccccc2)c1 (centres undefined) | 79.4 | 129 | – |
| CC(C)(C)c1cc(CCC(=O)Nc2ccccc2[N+](=O)[O-])cc(NC#N)n1 | – | – | inactive |
| NC(=O)C(NN=C1c2ccccc2-c2ccccc21)(c1ccccc1)c1ccccc1 | > 200 | 28.2 | – |
| CC(=O)C1CC[C@@H]2[C@H](CC[C@]3(C)[C@@H](O)CC[C@@H]23)[C@H]1C(=O)O (some centres undefined) | > 200 | > 200 | – |
| CN(C)c1nc(=NCc2cccnc2)ss1 | > 200 | 11.5 | – |
| CNC(=O)C1CCCCNC(=O)CCC(NC(=O)OCc2ccccc2)C(=O)N1 (stereo not drawn) (Cbz-Glu-Lys-NHMe; lactam 1-2; configuration not given here) | > 200 | > 200 | – |
| CC1=CCCC(C)C1(C)CC/C(C)=C/CC/C(=C/CS(=O)(=O)CCN=C(N)N)CO (centres undefined) | > 81.3 | 15.1 | – |
| O=C(/C=C/c1cccnc1)c1ccccc1 | > 123 | 7.59 | – |
| CN(C(=O)c1cccs1)C(=S)N1CCN(c2ccccn2)CC1 | > 195 | 110 | – |
| COc1ccc(/C=C2/C(=O)N(C(=O)c3ccccc3O)N=C2C)cc1OC | > 70.8 | 0.145 | – |
| C=C1C(=O)OC2C1CC1OC2C(C)CCC/C(C)=C\CCC1(C)O (centres undefined) | > 525 | 17 | – |
| CCOC(=O)c1ccc(Nc2cnc3cc(C(F)(F)F)ccc3n2)cc1 | > 200 | 141 | – |
| O=C(CC(C(=O)c1cccs1)c1ccccc1)c1ccccc1O (centres undefined) | > 200 | 115 | – |
| O=C1OCCc2c1[nH]c1ccccc21 | > 363 | 219 | – |
| CN(/N=C/c1ccc(Cl)c(Cl)c1)C1=NCCN1 | > 200 | 16.2 | – |

| Compound | EC50 [µM] | IC50 [µM] | outcome |
| --- | --- | --- | --- |
| O=[N+]([O-])c1ccc(-c2ccc(-c3csc(Nc4ccccn4)n3)o2)cc1 | > 5.5 | > 5.5 | – |
| Cc1cc2c(C(C)C)c(O)c(O)c(C=NCC3CCCN4CCCCC34)c2cc1-c1cc2c(C=NCC3CCCN4CCCCC34)c(O)c(O)c(C(C)C)c2cc1C (centres undefined) | 4.68 | 6.61 | – |
| O=C(O)CCC(=O)Oc1ccc(O)c2c1CCCC2=O | > 339 | > 339 | – |
| NCCCOCC(=O)O | – | – | inactive |
| CC(C)(C)OC(=O)NC12C3C4C1C1C2C3C41NC(=O)OC(C)(C)C (centres undefined) | > 200 | 53.7 | – |
| CC(Cc1cccc2c1Nc1ccccc1S2)N(C)CCO (centres undefined) | > 200 | 33.9 | – |
| C=CCc1cc(C=C(C#N)C#N)cc(OC)c1O | > 200 | 97.7 | – |
| C=C1C(=O)O[C@H]2CC(C)C3C(O)CC(O)[C@@]3(C)C[C@H]12 (some centres undefined) | > 933 | 6.03 | – |
| CC(=O)CCN1CC2CN=NC2(C#N)C1 (centres undefined) | > 200 | 46.8 | – |
| c1ccc(/N=N/c2ccccn2)nc1 | > 200 | > 200 | – |
| Cc1nnnn1C12CC3CC(CC(C3)C1)C2 | – | – | inactive |
| Fc1ccc2nncc(SCc3ccccc3Cl)c2c1 | > 87.1 | 35.5 | – |
| c1ccc(CC[P+](c2ccccc2)(c2ccccc2)c2ccccc2)cc1 | > 200 | 1.29 | – |
| CC(C)c1ccc(/C=C/c2cc(C(=O)NNC(=O)NC3CCCCC3)nc(=S)[nH]2)cc1 | > 6.17 | > 6.17 | – |
| C/C(=C/C=C(/C)C(=O)O)C(=O)O | > 1480 | > 1480 | – |
| O=c1[nH]c(=O)n(C2CC(O)C(CO)O2)c2nc3ccc4ccccc4c3nc12 (centres undefined) | > 100 | 13.2 | – |
| CCC(C(=O)NNC(=O)c1cc(OC)c(OC)c(OC)c1)c1ccccc1 (centres undefined) | > 200 | 195 | – |
| O=C(Cc1ccccc1)NCCCN(CCCCN(CCCNC(=O)Cc1ccccc1)C(=O)OCc1ccccc1)C(=O)OCc1ccccc1 | – | – | inactive |
| Cc1ccnc(NS(=O)(=O)c2ccc(N=Nc3cc4ccccc4c(C(=O)O)c3O)cc2)n1 | > 200 | 10 | – |
| CC1(C)OCN(c2ccc(N3CCOCC3)cc2)Cn2c1nc1ccccc12 | > 200 | 64.6 | – |
| O=C1OCC(Cc2ccc3c(c2)OCO3)[C@H]1Cc1ccc(O)cc1 (some centres undefined) | > 200 | 66.1 | – |
